{
  "source": "ChEMBL document CHEMBL5465560",
  "about": "“Selectivity Literature for EUbOPEN Chemogenomic Library” (2024)",
  "key": {"[1]": {"molecular_target": "Serine/threonine-protein kinase 24 (Homo sapiens) (UniProt Q9Y6E0)", "sequence (Q9Y6E0 whole entry, looked up)": "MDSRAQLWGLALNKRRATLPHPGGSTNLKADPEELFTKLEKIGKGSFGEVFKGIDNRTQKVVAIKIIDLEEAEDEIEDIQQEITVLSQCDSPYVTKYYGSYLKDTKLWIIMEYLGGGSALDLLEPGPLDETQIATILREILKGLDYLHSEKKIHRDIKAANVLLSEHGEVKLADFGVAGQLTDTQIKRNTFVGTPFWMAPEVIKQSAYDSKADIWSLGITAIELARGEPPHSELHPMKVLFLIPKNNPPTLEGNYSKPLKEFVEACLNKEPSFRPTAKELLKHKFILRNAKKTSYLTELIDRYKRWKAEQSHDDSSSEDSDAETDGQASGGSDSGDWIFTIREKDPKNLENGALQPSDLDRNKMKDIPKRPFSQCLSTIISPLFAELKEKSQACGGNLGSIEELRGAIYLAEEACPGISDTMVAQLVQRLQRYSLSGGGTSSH", "assay": "Selectivity interaction (KinomeScan (DiscoverX)) EUB0001079a STK24", "conditions": "at 1 µM"}, "[2]": {"molecular_target": "T1, Mitogen-activated protein kinase kinase kinase 12 (Homo sapiens) (UniProt Q12852)", "T1 sequence (whole entry)": "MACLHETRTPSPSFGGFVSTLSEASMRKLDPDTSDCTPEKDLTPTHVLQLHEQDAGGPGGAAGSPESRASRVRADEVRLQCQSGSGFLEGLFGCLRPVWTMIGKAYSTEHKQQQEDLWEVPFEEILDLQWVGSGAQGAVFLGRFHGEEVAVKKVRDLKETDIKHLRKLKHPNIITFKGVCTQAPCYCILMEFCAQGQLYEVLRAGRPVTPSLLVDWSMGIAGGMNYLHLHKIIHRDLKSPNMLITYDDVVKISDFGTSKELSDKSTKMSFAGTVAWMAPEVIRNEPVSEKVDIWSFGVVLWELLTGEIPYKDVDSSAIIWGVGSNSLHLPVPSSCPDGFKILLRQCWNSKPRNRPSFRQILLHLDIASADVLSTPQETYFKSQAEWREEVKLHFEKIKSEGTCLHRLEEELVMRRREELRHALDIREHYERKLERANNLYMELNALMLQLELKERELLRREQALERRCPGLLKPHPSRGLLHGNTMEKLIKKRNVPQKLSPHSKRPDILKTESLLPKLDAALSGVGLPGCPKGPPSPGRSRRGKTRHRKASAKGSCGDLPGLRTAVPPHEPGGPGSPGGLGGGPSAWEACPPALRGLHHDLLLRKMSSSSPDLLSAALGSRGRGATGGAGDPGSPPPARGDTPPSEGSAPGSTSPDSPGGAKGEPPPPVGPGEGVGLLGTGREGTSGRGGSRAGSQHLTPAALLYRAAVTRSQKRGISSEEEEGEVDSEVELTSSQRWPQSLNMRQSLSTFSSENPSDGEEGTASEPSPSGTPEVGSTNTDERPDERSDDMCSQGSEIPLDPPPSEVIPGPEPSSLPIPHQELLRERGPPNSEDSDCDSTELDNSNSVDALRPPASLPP", "conditions": "at 10 µM"}, "[3]": {"molecular_target": "T2, MAP/microtubule affinity-regulating kinase 4 (Homo sapiens) (UniProt Q96L34)", "T2 sequence (whole entry)": "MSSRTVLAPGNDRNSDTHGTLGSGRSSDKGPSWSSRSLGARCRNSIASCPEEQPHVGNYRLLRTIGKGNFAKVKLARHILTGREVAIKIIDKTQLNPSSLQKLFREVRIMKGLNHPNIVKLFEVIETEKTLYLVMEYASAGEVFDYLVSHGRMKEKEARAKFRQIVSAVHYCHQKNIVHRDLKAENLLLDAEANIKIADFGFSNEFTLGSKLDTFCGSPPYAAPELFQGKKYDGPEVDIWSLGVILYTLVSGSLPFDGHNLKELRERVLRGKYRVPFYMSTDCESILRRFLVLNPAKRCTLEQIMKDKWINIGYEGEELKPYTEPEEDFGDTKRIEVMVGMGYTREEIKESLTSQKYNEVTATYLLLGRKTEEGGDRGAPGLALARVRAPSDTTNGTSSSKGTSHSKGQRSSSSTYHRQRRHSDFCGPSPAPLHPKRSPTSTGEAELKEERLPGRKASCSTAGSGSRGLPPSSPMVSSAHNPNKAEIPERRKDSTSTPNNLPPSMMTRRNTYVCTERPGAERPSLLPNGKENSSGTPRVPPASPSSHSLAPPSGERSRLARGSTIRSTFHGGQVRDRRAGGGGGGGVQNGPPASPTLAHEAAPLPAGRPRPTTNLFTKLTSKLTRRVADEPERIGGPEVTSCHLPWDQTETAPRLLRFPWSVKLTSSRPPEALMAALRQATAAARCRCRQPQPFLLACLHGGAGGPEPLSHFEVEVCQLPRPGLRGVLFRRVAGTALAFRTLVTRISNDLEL", "assay": "Selectivity interaction (ActivX KiNativ screen (kinase selectivity in THP-1 cell lysates)) EUB0000639a MARK4", "type": "subcellular", "conditions": "lysate"}, "[4]": {"molecular_target": "Cyclin-dependent kinase 8 (Homo sapiens, UniProt P49336)", "sequence (P49336 whole entry)": "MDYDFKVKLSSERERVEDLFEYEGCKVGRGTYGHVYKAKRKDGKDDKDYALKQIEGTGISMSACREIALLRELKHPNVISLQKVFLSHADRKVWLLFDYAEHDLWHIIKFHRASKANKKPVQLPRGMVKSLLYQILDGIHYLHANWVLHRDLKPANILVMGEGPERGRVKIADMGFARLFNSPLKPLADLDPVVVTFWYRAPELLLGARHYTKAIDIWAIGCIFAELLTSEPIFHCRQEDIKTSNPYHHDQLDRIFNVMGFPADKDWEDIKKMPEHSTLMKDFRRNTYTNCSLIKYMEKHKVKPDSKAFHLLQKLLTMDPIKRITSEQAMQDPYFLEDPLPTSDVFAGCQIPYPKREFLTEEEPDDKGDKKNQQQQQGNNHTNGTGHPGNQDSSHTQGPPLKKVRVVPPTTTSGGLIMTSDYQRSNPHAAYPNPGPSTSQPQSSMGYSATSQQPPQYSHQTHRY", "assay": "Selectivity interaction (KinomeScan (DiscoverX)) EUB0000092b CDK8", "conditions": "at 10 µM"}, "[5]": {"molecular_target": "T3, Muscle, skeletal receptor tyrosine-protein kinase (Homo sapiens) (UniProt O15146)", "T3 sequence (whole entry)": "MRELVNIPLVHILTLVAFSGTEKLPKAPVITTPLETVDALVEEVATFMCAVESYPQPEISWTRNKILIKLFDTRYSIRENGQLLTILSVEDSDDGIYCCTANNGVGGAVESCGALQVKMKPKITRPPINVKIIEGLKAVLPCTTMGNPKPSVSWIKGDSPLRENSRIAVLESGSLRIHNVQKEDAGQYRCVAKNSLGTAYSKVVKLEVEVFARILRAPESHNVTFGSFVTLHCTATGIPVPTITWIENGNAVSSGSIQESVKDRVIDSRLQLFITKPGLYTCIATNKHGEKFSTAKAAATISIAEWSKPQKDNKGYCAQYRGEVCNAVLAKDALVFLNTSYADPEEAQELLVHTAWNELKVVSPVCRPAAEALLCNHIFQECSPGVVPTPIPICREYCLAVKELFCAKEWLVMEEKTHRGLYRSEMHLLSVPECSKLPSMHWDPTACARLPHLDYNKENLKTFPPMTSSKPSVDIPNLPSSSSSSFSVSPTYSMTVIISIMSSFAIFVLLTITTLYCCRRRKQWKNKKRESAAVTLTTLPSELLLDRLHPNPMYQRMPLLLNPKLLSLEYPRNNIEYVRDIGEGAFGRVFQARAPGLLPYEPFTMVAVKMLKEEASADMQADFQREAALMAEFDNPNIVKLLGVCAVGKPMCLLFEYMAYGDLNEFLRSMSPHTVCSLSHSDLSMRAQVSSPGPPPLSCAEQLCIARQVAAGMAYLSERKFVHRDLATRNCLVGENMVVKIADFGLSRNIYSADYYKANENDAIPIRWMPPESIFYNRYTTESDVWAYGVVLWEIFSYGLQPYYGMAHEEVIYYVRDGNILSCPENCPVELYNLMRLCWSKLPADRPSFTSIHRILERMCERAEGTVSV", "assay": "Selectivity interaction (Ambit KINOMEscan and KiNATiv profiling in Jurkat cells) EUB0000090b MUSK", "type": "cell-based", "conditions": "at 1 µM"}, "[6]": {"molecular_target": "Protein arginine N-methyltransferase 6 (Homo sapiens, UniProt Q96LA8)", "sequence (Q96LA8 whole entry, looked up)": "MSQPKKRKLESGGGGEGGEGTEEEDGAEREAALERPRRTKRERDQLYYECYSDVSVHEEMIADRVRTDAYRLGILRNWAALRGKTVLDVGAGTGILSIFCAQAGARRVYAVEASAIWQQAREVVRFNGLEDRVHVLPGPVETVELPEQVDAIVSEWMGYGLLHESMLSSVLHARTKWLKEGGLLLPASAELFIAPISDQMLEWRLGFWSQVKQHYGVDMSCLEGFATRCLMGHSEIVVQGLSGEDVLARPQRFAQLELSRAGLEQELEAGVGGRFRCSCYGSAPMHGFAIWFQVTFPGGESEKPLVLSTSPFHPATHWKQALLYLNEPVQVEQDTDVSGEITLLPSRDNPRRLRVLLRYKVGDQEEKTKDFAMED", "assay": "Selectivity interaction (Methyltransferase screen (radiometric assays, panel of 8 PRMTs, 21 protein lysine methyltransferases, 3 DNA methyltransferases, and one RNA methyltransferase)) EUB0000272b PRMT6"}, "[7]": {"molecular_target": "Casein kinase I isoform alpha (Homo sapiens, UniProt P48729)", "sequence (P48729 2-337 limits assumed)": "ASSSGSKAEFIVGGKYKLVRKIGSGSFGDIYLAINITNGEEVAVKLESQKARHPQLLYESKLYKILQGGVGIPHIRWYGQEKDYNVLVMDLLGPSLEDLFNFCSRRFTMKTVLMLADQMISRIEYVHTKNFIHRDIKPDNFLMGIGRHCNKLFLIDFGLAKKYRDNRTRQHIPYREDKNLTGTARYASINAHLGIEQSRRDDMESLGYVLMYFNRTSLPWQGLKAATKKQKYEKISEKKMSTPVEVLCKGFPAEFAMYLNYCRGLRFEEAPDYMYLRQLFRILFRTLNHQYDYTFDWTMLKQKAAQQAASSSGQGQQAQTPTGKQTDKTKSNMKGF", "assay": "Selectivity interaction (Kinase panel (Z-LYTE Assay)) EUB0001632a CSNK1A1", "conditions": "at 10 µM"}, "[8]": {"molecular_target": "Focal adhesion kinase 1 (Homo sapiens, UniProt Q05397)", "sequence (Q05397 2-1052 limits assumed)": "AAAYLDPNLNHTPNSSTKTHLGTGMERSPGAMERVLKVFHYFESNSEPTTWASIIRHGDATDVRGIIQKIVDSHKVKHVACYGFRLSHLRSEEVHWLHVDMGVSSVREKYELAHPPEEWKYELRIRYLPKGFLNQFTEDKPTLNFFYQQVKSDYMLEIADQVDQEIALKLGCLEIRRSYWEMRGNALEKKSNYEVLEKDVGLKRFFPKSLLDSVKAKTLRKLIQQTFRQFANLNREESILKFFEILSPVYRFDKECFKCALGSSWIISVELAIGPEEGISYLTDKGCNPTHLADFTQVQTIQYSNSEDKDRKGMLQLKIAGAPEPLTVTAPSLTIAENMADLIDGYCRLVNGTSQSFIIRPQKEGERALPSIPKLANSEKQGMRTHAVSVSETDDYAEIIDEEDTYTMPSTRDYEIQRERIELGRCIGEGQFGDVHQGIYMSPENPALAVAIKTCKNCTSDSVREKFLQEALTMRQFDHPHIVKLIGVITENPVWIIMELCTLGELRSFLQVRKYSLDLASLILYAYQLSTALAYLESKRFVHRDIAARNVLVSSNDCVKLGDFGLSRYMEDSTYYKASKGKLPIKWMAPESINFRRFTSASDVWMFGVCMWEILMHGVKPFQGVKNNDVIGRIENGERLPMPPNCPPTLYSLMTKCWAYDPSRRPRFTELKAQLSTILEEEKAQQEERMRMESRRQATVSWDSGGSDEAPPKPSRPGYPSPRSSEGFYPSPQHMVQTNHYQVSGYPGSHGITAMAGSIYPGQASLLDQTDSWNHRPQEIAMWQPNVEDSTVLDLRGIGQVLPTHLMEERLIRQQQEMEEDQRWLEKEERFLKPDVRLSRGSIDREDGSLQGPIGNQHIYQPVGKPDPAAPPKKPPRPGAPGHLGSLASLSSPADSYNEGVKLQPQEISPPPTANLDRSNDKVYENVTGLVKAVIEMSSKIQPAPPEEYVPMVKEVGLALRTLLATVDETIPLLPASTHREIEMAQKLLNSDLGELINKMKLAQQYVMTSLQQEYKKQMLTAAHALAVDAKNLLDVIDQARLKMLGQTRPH", "assay": "Selectivity interaction (ProQinase) EUB0000171b PTK2"}},
  "data": [
    {"compound": "Nc1cnc(N2CCc3cc(S(=O)(=O)Nc4c(F)cc(Cl)cc4F)cc(N4CCCC4=O)c32)nc1", "note": "[TP-020n]", "values": [
      {"measurement": "% of control", "setting": "[1]", "value": 100, "unit": "%"}
    ]},
    {"compound": "CCN(CC)CCCCNc1ncc2cc(-c3cc(OC)cc(OC)c3)c(NC(=O)NC(C)(C)C)nc2n1", "values": [
      {"measurement": "% of control", "setting": "[2]", "value": 100, "unit": "%"}
    ]},
    {"compound": "CC[C@@H]1[C@H](F)C(=O)N[C@@H]1COc1nccc2cc(C(N)=O)c(OC)cc12", "note": "[ZIMLOVISERTIB]", "values": [
      {"measurement": "% of inhibition", "setting": "[3]; at 0.01 µM", "value": 10.4, "unit": "%"},
      {"measurement": "% of inhibition", "setting": "[3]; at 0.04 µM", "value": 9.1, "unit": "%"},
      {"measurement": "% of inhibition", "setting": "[3]; at 0.2 µM", "value": 19.8, "unit": "%"},
      {"measurement": "% of inhibition", "setting": "[3]; at 1 µM", "value": 21.6, "unit": "%"},
      {"measurement": "% of inhibition", "setting": "[3]; at 5 µM", "value": 36.9, "unit": "%"}
    ]},
    {"compound": "CCC(=O)N1CCN(c2ccc(-n3c(=O)ccc4cnc5ccc(-c6cnc7ccccc7c6)cc5c43)cc2C(F)(F)F)CC1", "values": [
      {"measurement": "% of control", "setting": "[4]", "value": 4.6, "unit": "%"}
    ]},
    {"compound": "CN(C)C/C=C/C(=O)Nc1ccc(C(=O)N2CCCC(Nc3ncc(Cl)c(-c4c[nH]c5ccccc45)n3)C2)cc1", "note": "(centres undefined)", "values": [
      {"measurement": "% of control", "setting": "[5]", "value": 96, "unit": "%"}
    ]},
    {"compound": "Cc1cc(C)cc([C@H]2c3cc(C)ccc3NC(=O)CN2C(=O)c2ccc(Br)s2)c1", "values": [
      {"measurement": "% of activity", "setting": "[6]; at 1 µM", "value": 92.3, "unit": "%"},
      {"measurement": "% of activity", "setting": "[6]; at 10 µM", "value": 92.7, "unit": "%"}
    ]},
    {"compound": "Cn1cc(-n2cnc3c(NCc4nc5cc(Cl)c(Cl)cc5[nH]4)nc(N4CCOCC4)nc32)cn1", "values": [
      {"measurement": "% of control", "setting": "[7]", "value": 4.57, "unit": "%"}
    ]},
    {"compound": "C=CC(=O)Nc1cccc(C(=O)Nc2ccc(Nc3cc(-c4[nH]c(SC)nc4C)ccn3)cc2)c1", "values": [
      {"measurement": "% of control", "setting": "[8]; at 1 µM", "value": 106, "unit": "%"},
      {"measurement": "% of control", "setting": "[8]; at 5 µM", "value": 92, "unit": "%"}
    ]}
  ]
}
